# Data reported in patent publication US8642063B2, “Implantable medical device coatings with biodegradable elastomer and releasable taxane agent” (priority 2008, dated 2014).
# Experiment: Solubility / elution of paclitaxel solid forms in porcine serum
# Type: physicochemical
# Conditions: 37° C.
# Excerpt: For example, amorphous and dihydrate taxane solid forms may be readily identified and differentiated by visual appearance and elution rates. […] In addition, the presence of different solid forms of the taxane agent in a medical device coating can be identified and quantified by contacting the coating with an elution medium that selectively dissolves one solid form more readily than a second solid form. In solution with an elution medium, such as porcine serum or blood, the presence of the taxane agent can be identified, for example by using ultraviolet (UV) spectroscopy or high pressure liquid chromatography (HPLC). […] Non-solvated solid forms include amorphous or anhydrous solid forms.
# The amount of taxane agent released from coating into the elution medium, and the rate of release of the taxane agent from a coating, can be measured by any suitable method that allows for measurement of the release of the taxane agent with a desired level of accuracy and precision. The taxane agent in the coating can be determined by dissolving the coating in a suitable elution medium and subsequently detecting the amount of taxane agent in the elution medium. The taxane agent dissolved in the elution medium can be detected using any suitable technique. […] This correlation involves the linear relationship between optical density (absorbance) and concentration of an absorbing species. […]
smiles,measurement,value
"CC(=O)O[C@H]1C(=O)[C@@]2(C)[C@H]([C@H](OC(=O)c3ccccc3)[C@]3(O)C[C@H](OC(=O)[C@H](O)[C@@H](NC(=O)c4ccccc4)c4ccccc4)C(C)=C1C3(C)C)[C@]1(OC(C)=O)CO[C@@H]1C[C@@H]2O [dihydrate paclitaxel, paclitaxel]",solubility after 24 hours in porcine serum,less than 40 wt %
